Some test systems named below: K-562 leukemia; OVCAR-5 ovarian; SNB-75 CNS; M14 melanoma; T-47D breast; LOX IMVI melanoma; MOLT-4 leukemia; PC-3 prostate; SR leukemia; COLO 205 colon.
Holding throughout (assay): NCI anticancer screen, dose series, 48 h

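Cells were grown in 96-well plates and exposed to each compound for 48 hours at five concentrations; endpoints were interpolated linearly between bracketing concentrations, or set to the highest concentration if not reached. Here, GI50 denotes the concentration required for 50% inhibition of growth. TGI is the concentration that stops growth completely.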

With `COc1ccc(Oc2nc(Nc3ccc(N4CCOCC4)cc3)ncc2NC(=O)Nc2cc(OC)cc(OC)c2)cc1`, the GI50 in the assay on K-562 leukemia is 4.66 µM; in the assay on OVCAR-5 ovarian it was 11.6 µM; in the assay with SNB-75 CNS, 1.65 µM; in the assay on M14 melanoma, 3.02 µM; in the assay on T-47D breast, 5.13 µM; with LOX IMVI melanoma, 3.59 µM. Besides, the GI50 in the assay on MOLT-4 leukemia was 10.6 µM; with PC-3 prostate it was 2.39 µM; in the assay with SR leukemia, 6.76 µM; in the assay on COLO 205 colon, 5.27 µM. In addition, the TGI in the assay on K-562 leukemia is above 33.3 µM; in the assay on OVCAR-5 ovarian it was above 33.3 µM; in the assay on SNB-75 CNS it was 18.2 µM; in the assay on M14 melanoma, 14.1 µM; with T-47D breast, above 33.3 µM; with LOX IMVI melanoma it was 12.6 µM. Moreover, the TGI was above 33.3 µM with MOLT-4 leukemia, 14.2 µM with PC-3 prostate, above 33.3 µM with SR leukemia and 14.7 µM in the assay with COLO 205 colon.

For the compound `O=S1CCN(Cc2ccc(-c3ccc4ncnc(Nc5ccc(OCc6ccccc6)c(F)c5)c4c3)o2)CC1`, the GI50 with K-562 leukemia was 11.9 µM; in the assay with OVCAR-5 ovarian, 13.9 µM; in the assay on SNB-75 CNS, above 13.1 µM; in the assay on M14 melanoma, 6.26 µM; in the assay with T-47D breast, 3.22 µM; with LOX IMVI melanoma, 6.39 µM. Moreover, the GI50 with MOLT-4 leukemia was 8.76 µM; in the assay with PC-3 prostate it was 9.98 µM; with SR leukemia, 9.29 µM; in the assay on COLO 205 colon, 4.42 µM. Further, the TGI is above 25 µM in the assay with K-562 leukemia; above 25 µM with OVCAR-5 ovarian; above 25 µM in the assay on SNB-75 CNS; above 21.6 µM in the assay on M14 melanoma; above 19.2 µM in the assay on T-47D breast; above 23.4 µM with LOX IMVI melanoma. The TGI is above 25 µM in the assay with MOLT-4 leukemia, above 25 µM with PC-3 prostate, above 25 µM in the assay on SR leukemia and 10.6 µM with COLO 205 colon.

For `CC(=O)Nc1c(I)c(C(=O)O)c(I)c(N(C)C(C)=O)c1I`, the GI50 in the assay with K-562 leukemia, in the assay with OVCAR-5 ovarian, with SNB-75 CNS, in the assay on M14 melanoma, in the assay with T-47D breast and with LOX IMVI melanoma was above 100 µM throughout. In addition, the GI50 with MOLT-4 leukemia, in the assay on PC-3 prostate, in the assay on SR leukemia and in the assay on COLO 205 colon was above 100 µM throughout. For the same compound, the TGI in the assay with K-562 leukemia, in the assay on OVCAR-5 ovarian, in the assay on SNB-75 CNS, in the assay with M14 melanoma, with T-47D breast and in the assay on LOX IMVI melanoma was above 100 µM in each case. In addition, the TGI in the assay on MOLT-4 leukemia, in the assay with PC-3 prostate, in the assay with SR leukemia and with COLO 205 colon was above 100 µM each time.

Consider `COc1cc(-c2ccc(Nc3ccccc3C(=O)O)c(OC)c2)ccc1Nc1ccccc1C(=O)O`, for which the TGI is above 100 µM in the assay on K-562 leukemia; above 87.5 µM with OVCAR-5 ovarian; 91.3 µM with SNB-75 CNS; above 100 µM in the assay on M14 melanoma; above 65.7 µM in the assay with T-47D breast; 30.9 µM in the assay on LOX IMVI melanoma. Moreover, the TGI in the assay with MOLT-4 leukemia is above 100 µM; in the assay on PC-3 prostate, above 67.4 µM; in the assay on SR leukemia it was above 84.6 µM; with COLO 205 colon, above 100 µM.

As to `O=c1c(-c2ccc3c(c2)OCO3)coc2c(CO)c(O)ccc12`, the GI50 in the assay with K-562 leukemia is 2.87 µM; with OVCAR-5 ovarian, 3.3 µM; with SNB-75 CNS, 2.39 µM; in the assay with M14 melanoma it was 3.2 µM; in the assay with T-47D breast, 2.48 µM; in the assay on LOX IMVI melanoma it was 1.28 µM. The GI50 in the assay with MOLT-4 leukemia is 30.2 µM; in the assay on PC-3 prostate, 1.54 µM; in the assay on SR leukemia, 2.65 µM; in the assay with COLO 205 colon it was 20.9 µM. The TGI in the assay on K-562 leukemia was above 100 µM; in the assay on OVCAR-5 ovarian it was 10.5 µM; in the assay on SNB-75 CNS, 7.43 µM; in the assay with M14 melanoma it was 14.8 µM; with T-47D breast, 14.9 µM; with LOX IMVI melanoma, 3.41 µM. For the same compound, the TGI in the assay on MOLT-4 leukemia is above 100 µM; in the assay with PC-3 prostate, 4.03 µM; with SR leukemia, above 100 µM; with COLO 205 colon it was 45.5 µM.

Consider `S=C(Nc1ccc(Cl)cc1)SC1CCCCC1`, for which the TGI with K-562 leukemia is above 100 µM; in the assay on OVCAR-5 ovarian it was 62 µM; with SNB-75 CNS it was 74.4 µM; in the assay with M14 melanoma, 42.7 µM; in the assay with T-47D breast, above 100 µM; with LOX IMVI melanoma, 42.8 µM. The TGI was 92.4 µM with MOLT-4 leukemia, above 100 µM in the assay with PC-3 prostate, above 100 µM in the assay on SR leukemia and above 100 µM in the assay with COLO 205 colon.

As for `O=[N+]([O-])c1ccc(Oc2cccc(C(F)(F)F)c2)c([N+](=O)[O-])c1`, the GI50 in the assay with K-562 leukemia was 0.303 µM; in the assay on OVCAR-5 ovarian it was 4.08 µM; with SNB-75 CNS it was 5.11 µM; in the assay with M14 melanoma, 2.79 µM; in the assay on T-47D breast it was 2.55 µM; in the assay with LOX IMVI melanoma it was 0.447 µM. Further, the GI50 is 0.344 µM with MOLT-4 leukemia, 4.2 µM in the assay on PC-3 prostate, 0.286 µM in the assay on SR leukemia and 2.64 µM in the assay with COLO 205 colon. The TGI is 9.59 µM in the assay on K-562 leukemia; 17.6 µM in the assay on OVCAR-5 ovarian; 37.9 µM with SNB-75 CNS; 14 µM with M14 melanoma; 7.66 µM with T-47D breast; 10.8 µM in the assay with LOX IMVI melanoma. In addition, the TGI in the assay on MOLT-4 leukemia was 2.92 µM; with PC-3 prostate, 16.4 µM; with SR leukemia, 1.82 µM; in the assay with COLO 205 colon, 6.04 µM.

As for `Cc1ccc(C2NC(=S)N3C(c4ccc(C)cc4)NC(=S)N23)cc1` (stereo not given), the GI50 is 1.01 µM in the assay with K-562 leukemia; 14.7 µM with OVCAR-5 ovarian; 2.87 µM with SNB-75 CNS; 3.01 µM in the assay with M14 melanoma; 5.24 µM with T-47D breast; 8.84 µM with LOX IMVI melanoma. For the same compound, the GI50 with MOLT-4 leukemia is 5.82 µM; with PC-3 prostate, 3.81 µM; with SR leukemia, 0.491 µM; in the assay on COLO 205 colon, 6.07 µM. For the same compound, the TGI with K-562 leukemia was found to be 12 µM; in the assay on OVCAR-5 ovarian it was 28.2 µM; in the assay with SNB-75 CNS, 12.1 µM; in the assay with M14 melanoma, 11.2 µM; in the assay with T-47D breast it was 19.6 µM; in the assay with LOX IMVI melanoma, 22.1 µM. Further, the TGI amounted to 18.9 µM with MOLT-4 leukemia, 16.9 µM in the assay on PC-3 prostate, 3.55 µM in the assay with SR leukemia and 18.5 µM with COLO 205 colon.

The values above are taken from PubChem BioAssay (NCI).
